According to ChEMBL document CHEMBL1152415, “Potent antitumor bifunctional DNA alkylating agents, synthesis and biological activities of 3a-aza-cyclopenta[a]indenes” (Bioorg Med Chem, 2009):
Active and inactive are the calls of the source. The rule behind the calls is not given here.

Assays:
CCRF-CEM [1] = experiment: Cross-resistance, IC50 for human vinblastine-resistant CCRF-CEM cells to IC50 for human CCRF-CEM cells; type: functional
CCRF-CEM [2] = experiment: Cross-resistance, IC50 for human taxol-resistant CCRF-CEM cells to IC50 for human CCRF-CEM cells; type: functional
CCRF-CEM [3] = experiment: Cytotoxicity against human CCRF-CEM cells after 72 hrs by XTT assay; type: functional, cell-based
CCRF-CEM [4] = experiment: Cytotoxicity against human vinblastine-resistant CCRF-CEM cells after 72 hrs by XTT assay; type: functional, cell-based
MX1 = experiment: Cytotoxicity against human MX1 cells after 72 hrs by SRB assay; type: functional, cell-based; conditions: MX1, 72 h
CCRF-CEM [5] = experiment: Cytotoxicity against human taxol-resistant CCRF-CEM cells after 72 hrs by XTT assay; type: functional, cell-based
HCT-116 = experiment: Cytotoxicity against human HCT116 cells after 72 hrs by SRB assay; type: functional, cell-based; conditions: HCT-116, 72 h
[6] = Cytotoxicity against human H1299 cells after 72 hrs by WST-1 assay; type: functional, cell-based; conditions: NCI-H1299, 72 h
PC-3 = experiment: Cytotoxicity against human PC3 cells after 72 hrs by WST-1 assay; type: functional, cell-based; conditions: PC-3, 72 h
[7] = Cytotoxicity against human OECM1 cells after 72 hrs by WST-1 assay; type: functional, cell-based; conditions: OECM1, 72 h
[8] = Cytotoxicity against human U87 cells after 72 hrs by WST-1 assay; type: functional, cell-based, U-87MG ATCC; conditions: U-87 MG
Nucleic Acid [9] = experiment: Induction of DNA interstrand cross-linking in human H1299 cells at 100 uM under aerobic condition for 1 hr followed by irradiated with 20 Gy of X-ray by modified comet assay relative to irradiated untreated control; type: cell-based
[10] = Cell cycle arrest in human H1299 cells assessed as accumulation at G2/M phase at 10 uM after 24 hrs by flow cytometry relative to control; type: functional, cell-based; conditions: NCI-H1299
[11] = Cell cycle arrest in human H1299 cells assessed as accumulation at S phase at 10 uM after 72 hrs by flow cytometry relative to control; type: functional, cell-based; conditions: NCI-H1299
[12] = Cell cycle arrest in human H1299 cells assessed as accumulation at G2/M phase at 10 uM after 72 hrs by flow cytometry relative to control; type: functional, cell-based; conditions: NCI-H1299
[13] = Cell cycle arrest in human H1299 cells assessed as accumulation at S phase at 10 uM after 48 hrs by flow cytometry relative to control; type: functional, cell-based; conditions: NCI-H1299
Nucleic Acid [14] = experiment: Induction of pEGFP-N1 plasmid DNA interstrand cross-linking at 20 uM after 2 hrs by alkaline agarose gel shift assay; type: nucleic-acid assay
Nucleic Acid [15] = experiment: Induction of pEGFP-N1 plasmid DNA interstrand cross-linking at 10 uM after 2 hrs by alkaline agarose gel shift assay; type: nucleic-acid assay
Nucleic Acid [16] = experiment: Induction of pEGFP-N1 plasmid DNA interstrand cross-linking at 1 uM after 2 hrs by alkaline agarose gel shift assay; type: nucleic-acid assay
[17] = Cell cycle arrest in human H1299 cells assessed as accumulation at G0/G1 phase at 10 uM after 72 hrs by flow cytometry relative to control; type: functional, cell-based; conditions: NCI-H1299
[18] = Cell cycle arrest in human H1299 cells assessed as accumulation at G0/G1 phase at 10 uM after 48 hrs by flow cytometry relative to control; type: functional, cell-based; conditions: NCI-H1299
[19] = Cell cycle arrest in human H1299 cells assessed as accumulation at subG1 phase at 10 uM after 72 hrs by flow cytometry relative to control; type: functional, cell-based; conditions: NCI-H1299
[20] = Cell cycle arrest in human H1299 cells assessed as accumulation at G0/G1 phase at 10 uM after 24 hrs by flow cytometry relative to control; type: functional, cell-based; conditions: NCI-H1299
[21] = Cell cycle arrest in human H1299 cells assessed as accumulation at subG1 phase at 10 uM after 48 hrs by flow cytometry relative to control; type: functional, cell-based; conditions: NCI-H1299
[22] = Cell cycle arrest in human H1299 cells assessed as accumulation at S phase at 10 uM after 24 hrs by flow cytometry relative to control; type: functional, cell-based; conditions: NCI-H1299
[23] = Cell cycle arrest in human H1299 cells assessed as accumulation at G2/M phase at 10 uM after 48 hrs by flow cytometry relative to control; type: functional, cell-based; conditions: NCI-H1299
[24] = Cell cycle arrest in human H1299 cells assessed as accumulation at subG1 phase at 10 uM after 24 hrs by flow cytometry relative to control; type: functional, cell-based; conditions: NCI-H1299

| SMILES | Ratio IC50 (CCRF-CEM [1]) | Ratio IC50 (CCRF-CEM [2]) | IC50 (CCRF-CEM [3]; read-out: IC50) [nM] | IC50 (CCRF-CEM [4]) [nM] | IC50 (MX1) [nM] | IC50 (CCRF-CEM [5]) [nM] | IC50 (HCT-116) [nM] | other results |
| --- | --- | --- | --- | --- | --- | --- | --- | --- |
| COc1cc(-c2c(CO)c(CO)c3n2-c2ccccc2C3)cc(OC)c1OC | 0.45 | 0.52 | 2200 | 990 | 17000 | 1100 | 29000 | – |
| CNC(=O)OCc1c(COC(=O)NC)c(-c2c(OC)cccc2OC)n2c1Cc1ccccc1-2 | 0.97 | 1.1 | 640 | 620 | 5300 | 720 | 1100 | – |
| COc1ccccc1-c1c(CO)c(CO)c2n1-c1ccccc1C2 | 2.6 | 1.9 | 1000 | 2700 | 8700 | 1900 | 12000 | – |
| CNC(=O)OCc1c(COC(=O)NC)c(-c2ccc(OC)c(OC)c2)n2c1Cc1ccccc1-2 | 1.4 | 1.1 | 350 | 500 | 1800 | 390 | 660 | – |
| CCc1c(COC(=O)NC)c(COC(=O)NC)c2n1-c1ccccc1C2 | 1.5 | 1.2 | 70 | 100 | 660 | 80 | 710 | IC50 [6]: > 50000 nM; IC50 (PC-3): > 50000 nM; IC50 [7]: 11800 nM; IC50 [8]: > 50000 nM |
| COc1ccc(-c2c(CO)c(CO)c3n2-c2ccc(OC)cc2C3)cc1 | 1.2 | 0.53 | 120 | 140 | 1500 | 62 | 670 | Activity (Nucleic Acid [9]): 35.5%; Activity [10]: 5.84%; Activity [11]: 24.6%; Activity [12]: 73.6%; IC50 [6]: 19000 nM; Activity [13]: 38.9%; Activity (Nucleic Acid [14]): Active; Activity (Nucleic Acid [15]): Active; IC50 (PC-3): 23200 nM; Activity (Nucleic Acid [16]): Active; Activity [17]: 1.8%; Activity [18]: 19.3%; Activity [19]: 15.6%; Activity [20]: 43.7%; Activity [21]: 3.88%; IC50 [7]: 1540 nM; IC50 [8]: 24400 nM; Activity [22]: 50.5%; Activity [23]: 41.9%; Activity [24]: 1.95% |
| OCc1c(CO)c(-c2ccc(F)c(F)c2)n2c1Cc1ccccc1-2 | 1.4 | 1.4 | 5200 | 7500 | 7000 | 7500 | 11000 | – |
| CNC(=O)OCc1c(COC(=O)NC)c(-c2ccc(OC)cc2)n2c1Cc1cc(OC)ccc1-2 | 1.6 | 1 | 62 | 98 | 870 | 62 | 440 | Activity (Nucleic Acid [9]): 97.9%; Activity [10]: 4.15%; Activity [11]: 9.19%; Activity [12]: 85.8%; IC50 [6]: 20900 nM; Activity [13]: 25.6%; Activity (Nucleic Acid [14]): Active; Activity (Nucleic Acid [15]): Active; IC50 (PC-3): 22000 nM; Activity (Nucleic Acid [16]): Active; Activity [17]: 5.06%; Activity [18]: 24.9%; Activity [19]: 17.2%; Activity [20]: 44.7%; Activity [21]: 5.86%; IC50 [7]: 1270 nM; IC50 [8]: 38300 nM; Activity [22]: 51.1%; Activity [23]: 49.5%; Activity [24]: 2.64% |
| CNC(=O)OCc1c(COC(=O)NC)c2n(c1C)-c1ccccc1C2 | 0.53 | 0.67 | 120 | 63 | 340 | 120 | 300 | IC50 [6]: > 50000 nM; IC50 (PC-3): 27200 nM; IC50 [7]: 1450 nM; IC50 [8]: > 50000 nM |
| COc1ccc(-c2c(CO)c(CO)c3n2-c2ccccc2C3)cc1OC | 1.8 | 1.1 | 1000 | 1900 | 11000 | 1100 | 4300 | – |
| CNC(=O)OCc1c(COC(=O)NC)c(-c2ccc(Cl)cc2)n2c1Cc1ccccc1-2 | 0.4 | 0.58 | 5700 | 2300 | 9900 | 3300 | 8900 | – |
| CNC(=O)OCc1c(COC(=O)NC)c(-c2cc(OC)c(OC)c(OC)c2)n2c1Cc1ccccc1-2 | 1.2 | 0.73 | 12000 | 14000 | 7200 | 8400 | 1900 | – |
| CC(=O)O[C@H]1C(=O)[C@@]2(C)[C@H]([C@H](OC(=O)c3ccccc3)[C@]3(O)C[C@H](OC(=O)[C@H](O)[C@@H](NC(=O)c4ccccc4)c4ccccc4)C(C)=C1C3(C)C)[C@]1(OC(C)=O)CO[C@@H]1C[C@@H]2O [PACLITAXEL] | 333 | 1000 | – | 400 | – | 1200 | – | IC50 (CCRF-CEM [3]): 1.2 nM |
| COc1ccc(-c2c(CO)c(CO)c3n2-c2ccccc2C3)cc1 | 1.4 | 1.5 | 1200 | 1600 | 11000 | 1700 | 6100 | IC50 [6]: 50300 nM; IC50 (PC-3): 55500 nM; IC50 [7]: 9260 nM; IC50 [8]: 45500 nM |
| CO[C@@]12[C@H](COC(N)=O)C3=C(C(=O)C(C)=C(N)C3=O)N1C[C@@H]1N[C@@H]12 | – | – | – | – | – | – | – | Activity (Nucleic Acid [9]): 76.5% |
| CNC(=O)OCc1c(COC(=O)NC)c(-c2ccc(F)c(F)c2)n2c1Cc1ccccc1-2 | 1 | 0.97 | 640 | 650 | 8200 | 610 | 900 | – |
| COc1cccc(OC)c1-c1c(CO)c(CO)c2n1-c1ccccc1C2 | 0.92 | 0.76 | 8100 | 7500 | 26000 | 6200 | 43000 | – |
| OCc1c(CO)c(-c2ccc(Cl)cc2)n2c1Cc1ccccc1-2 | 1 | 0.55 | 4300 | 4500 | 6100 | 2400 | 5700 | – |
| OCc1c(CO)c(-c2ccccc2)n2c1Cc1ccccc1-2 | 1 | 0.9 | 250 | 250 | 1300 | 220 | 1900 | – |
| OCc1c(CO)c(-c2ccc(F)cc2)n2c1Cc1ccccc1-2 | 2.5 | 1.6 | 4500 | 11000 | 22000 | 7200 | 8700 | – |
| CC[C@]1(O)C[C@@H]2CN(CCc3c([nH]c4ccccc34)[C@@](C(=O)OC)(c3cc4c(cc3OC)N(C)[C@H]3[C@@](O)(C(=O)OC)[C@H](OC(C)=O)[C@]5(CC)C=CCN6CC[C@]43[C@@H]65)C2)C1 [VINBLASTINE] | 107 | 685 | – | – | – | – | – | – |
| CNC(=O)OCc1c(COC(=O)NC)c(-c2ccc(F)cc2)n2c1Cc1ccccc1-2 | 2 | 2.2 | 140 | 280 | 740 | 300 | 400 | – |
| CNC(=O)OCc1c(COC(=O)NC)c(-c2ccccc2)n2c1Cc1ccccc1-2 | 1.6 | 4.7 | 360 | 550 | 5900 | 1700 | 750 | – |
